Measurements published in PubChem BioAssay (NCI).
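Tested at 5 concentrations; 48 h exposure; 96-well plates; endpoints linearly interpolated, else capped at highest concentration. GI50 marks 50% less growth. TGI: total growth inhibition.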

Key:
Assay in all cases: NCI-60 cell line screen, 48 h; in the data active = GI50 below about 0.43 µM; inactive = the rest
SNB-75 CNS = test system: SNB-75 CNS
NCI-H23 lung = test system: NCI-H23 lung
ACHN renal = test system: ACHN renal
HL-60(TB) leukemia = test system: HL-60(TB) leukemia
HS 578T breast = test system: HS 578T breast
UACC-62 melanoma = test system: UACC-62 melanoma
MDA-MB-435 = test system: MDA-MB-435
SK-MEL-2 melanoma = test system: SK-MEL-2 melanoma
M14 melanoma = test system: M14 melanoma
BT-549 breast = test system: BT-549 breast
HOP-62 NSCLC = test system: HOP-62 NSCLC
COLO 205 colon = test system: COLO 205 colon
HT29 colon = test system: HT29 colon
A549 NSCLC = test system: A549 NSCLC
DU-145 prostate = test system: DU-145 prostate
A498 renal = test system: A498 renal
NCI-H226 lung = test system: NCI-H226 lung
TK-10 renal = test system: TK-10 renal
EKVX NSCLC = test system: EKVX NSCLC
T-47D breast = test system: T-47D breast
SNB-19 CNS = test system: SNB-19 CNS
UO-31 renal = test system: UO-31 renal
SF-539 CNS = test system: SF-539 CNS
MOLT-4 leukemia = test system: MOLT-4 leukemia
HCC-2998 colon = test system: HCC-2998 colon
MDA-MB-231 breast = test system: MDA-MB-231 breast
K-562 leukemia = test system: K-562 leukemia
OVCAR-8 ovarian = test system: OVCAR-8 ovarian
SK-MEL-5 melanoma = test system: SK-MEL-5 melanoma
SW-620 colon = test system: SW-620 colon
HCT-116 colon = test system: HCT-116 colon
PC-3 prostate = test system: PC-3 prostate
KM12 colon = test system: KM12 colon
SF-295 CNS = test system: SF-295 CNS
NCI-H460 lung = test system: NCI-H460 lung
NCI-H522 lung = test system: NCI-H522 lung
MCF7 breast = test system: MCF7 breast
SK-OV-3 ovarian = test system: SK-OV-3 ovarian
OVCAR-4 ovarian = test system: OVCAR-4 ovarian
RXF 393 renal = test system: RXF 393 renal
NCI/ADR-RES ovarian = test system: NCI/ADR-RES ovarian
SF-268 CNS = test system: SF-268 CNS
HCT-15 colon = test system: HCT-15 colon
U251 CNS = test system: U251 CNS
OVCAR-5 ovarian = test system: OVCAR-5 ovarian
SK-MEL-28 melanoma = test system: SK-MEL-28 melanoma
RPMI-8226 leukemia = test system: RPMI-8226 leukemia
OVCAR-3 ovarian = test system: OVCAR-3 ovarian
MALME-3M melanoma = test system: MALME-3M melanoma
HOP-92 NSCLC = test system: HOP-92 NSCLC
786-0 renal = test system: 786-0 renal
CCRF-CEM leukemia = test system: CCRF-CEM leukemia
CAKI-1 renal = test system: CAKI-1 renal
SN12C renal = test system: SN12C renal
LOX IMVI melanoma = test system: LOX IMVI melanoma
IGROV1 ovarian = test system: IGROV1 ovarian
UACC-257 melanoma = test system: UACC-257 melanoma

CCNc1nc(N2CC(=O)Nc3cc(OC)ccc32)c2ccccc2n1
0.000581 µM: TGI (HL-60(TB) leukemia)
0.00655 µM: TGI (SF-539 CNS)
0.0134 µM: TGI (SK-OV-3 ovarian)
14.2 µM: TGI (HOP-62 NSCLC)
0.000442 µM: TGI (MDA-MB-435)
0.00337 µM: TGI (SK-MEL-5 melanoma)
9.69 µM: TGI (HOP-92 NSCLC)
0.00614 µM: TGI (SF-295 CNS)
0.015 µM: TGI (NCI/ADR-RES ovarian)
24.3 µM: TGI (RPMI-8226 leukemia)
47.8 µM: TGI (HS 578T breast)
inactive: GI50 (SK-MEL-28 melanoma) 1.7 µM | GI50 (MALME-3M melanoma) 7.57 µM | GI50 (HOP-92 NSCLC) 1.26 µM
0.00207 µM: TGI (COLO 205 colon)
> 100 µM: TGI (SNB-75 CNS) | TGI (NCI-H23 lung) | TGI (ACHN renal) | TGI (UACC-62 melanoma) | TGI (M14 melanoma) | TGI (A549 NSCLC) | TGI (NCI-H226 lung) | TGI (TK-10 renal) | TGI (EKVX NSCLC) | TGI (SNB-19 CNS) | TGI (UO-31 renal) | TGI (MOLT-4 leukemia) | TGI (MDA-MB-231 breast) | TGI (K-562 leukemia) | TGI (OVCAR-8 ovarian) | TGI (SW-620 colon) | TGI (HCT-116 colon) | TGI (PC-3 prostate) | TGI (KM12 colon) | TGI (NCI-H460 lung) | TGI (MCF7 breast) | TGI (OVCAR-4 ovarian) | TGI (SF-268 CNS) | TGI (HCT-15 colon) | TGI (U251 CNS) | TGI (OVCAR-5 ovarian) | TGI (SK-MEL-28 melanoma) | TGI (MALME-3M melanoma) | TGI (786-0 renal) | TGI (CCRF-CEM leukemia) | TGI (CAKI-1 renal) | TGI (SN12C renal) | TGI (LOX IMVI melanoma)
0.00783 µM: TGI (NCI-H522 lung)
active: GI50 (SNB-75 CNS) 0.000433 µM | GI50 (NCI-H23 lung) 0.000554 µM | GI50 (ACHN renal) 0.00139 µM | GI50 (HL-60(TB) leukemia) 0.000235 µM | GI50 (HS 578T breast) 0.00164 µM | GI50 (UACC-62 melanoma) 0.00054 µM | GI50 (MDA-MB-435) 0.000193 µM | GI50 (M14 melanoma) 0.000363 µM | GI50 (BT-549 breast) 0.00237 µM | GI50 (HOP-62 NSCLC) 0.00227 µM | GI50 (COLO 205 colon) 0.00035 µM | GI50 (HT29 colon) 0.000334 µM | GI50 (A549 NSCLC) 0.000737 µM | GI50 (DU-145 prostate) 0.000435 µM | GI50 (A498 renal) 0.00151 µM | GI50 (TK-10 renal) 0.0822 µM | GI50 (T-47D breast) 0.253 µM | GI50 (SNB-19 CNS) 0.00067 µM | GI50 (SF-539 CNS) 0.0011 µM | GI50 (MOLT-4 leukemia) 0.000472 µM | GI50 (HCC-2998 colon) 0.000614 µM | GI50 (MDA-MB-231 breast) 0.000553 µM | GI50 (K-562 leukemia) 0.000351 µM | GI50 (OVCAR-8 ovarian) 0.000945 µM | GI50 (SK-MEL-5 melanoma) 0.000456 µM | GI50 (SW-620 colon) 0.000378 µM | GI50 (HCT-116 colon) 0.000361 µM | GI50 (PC-3 prostate) 0.00058 µM | GI50 (KM12 colon) 0.000404 µM | GI50 (SF-295 CNS) 0.00129 µM | GI50 (NCI-H460 lung) 0.000365 µM | GI50 (NCI-H522 lung) 0.00051 µM | GI50 (MCF7 breast) 0.000369 µM | GI50 (SK-OV-3 ovarian) 0.000483 µM | GI50 (RXF 393 renal) 0.001 µM | GI50 (NCI/ADR-RES ovarian) 0.000399 µM | GI50 (SF-268 CNS) 0.00139 µM | GI50 (HCT-15 colon) 0.000609 µM | GI50 (U251 CNS) 0.000437 µM | GI50 (OVCAR-5 ovarian) 0.0107 µM | GI50 (RPMI-8226 leukemia) 0.000471 µM | GI50 (OVCAR-3 ovarian) 0.000352 µM | GI50 (786-0 renal) 0.00994 µM | GI50 (CCRF-CEM leukemia) 0.000404 µM | GI50 (CAKI-1 renal) 0.0022 µM | GI50 (SN12C renal) 0.00137 µM | GI50 (LOX IMVI melanoma) 0.000693 µM | GI50 (IGROV1 ovarian) 0.00184 µM
42.7 µM: TGI (SK-MEL-2 melanoma)
52.9 µM: TGI (T-47D breast)
14.1 µM: TGI (IGROV1 ovarian)
12.1 µM: TGI (DU-145 prostate)
0.01 µM: TGI (HT29 colon)
3.91 µM: TGI (BT-549 breast)

O=C(Cn1ccnc1[N+](=O)[O-])NCC(F)(F)C(F)(F)F
> 100 µM: TGI (SNB-75 CNS) | TGI (UACC-257 melanoma) | TGI (NCI-H23 lung) | TGI (ACHN renal) | TGI (HS 578T breast) | TGI (UACC-62 melanoma) | TGI (MDA-MB-435) | TGI (SK-MEL-2 melanoma) | TGI (M14 melanoma) | TGI (BT-549 breast) | TGI (HOP-62 NSCLC) | TGI (COLO 205 colon) | TGI (HT29 colon) | TGI (A549 NSCLC) | TGI (DU-145 prostate) | TGI (A498 renal) | TGI (NCI-H226 lung) | TGI (TK-10 renal) | TGI (EKVX NSCLC) | TGI (T-47D breast) | TGI (SNB-19 CNS) | TGI (UO-31 renal) | TGI (SF-539 CNS) | TGI (HCC-2998 colon) | TGI (MDA-MB-231 breast) | TGI (OVCAR-8 ovarian) | TGI (SK-MEL-5 melanoma) | TGI (SW-620 colon) | TGI (HCT-116 colon) | TGI (PC-3 prostate) | TGI (KM12 colon) | TGI (SF-295 CNS) | TGI (NCI-H460 lung) | TGI (NCI-H522 lung) | TGI (MCF7 breast) | TGI (SK-OV-3 ovarian) | TGI (OVCAR-4 ovarian) | TGI (RXF 393 renal) | TGI (NCI/ADR-RES ovarian) | TGI (SF-268 CNS) | TGI (HCT-15 colon) | TGI (U251 CNS) | TGI (OVCAR-5 ovarian) | TGI (SK-MEL-28 melanoma) | TGI (RPMI-8226 leukemia) | TGI (OVCAR-3 ovarian) | TGI (MALME-3M melanoma) | TGI (HOP-92 NSCLC) | TGI (786-0 renal) | TGI (CAKI-1 renal) | TGI (SN12C renal) | TGI (LOX IMVI melanoma) | TGI (IGROV1 ovarian)
inactive: GI50 (SNB-75 CNS) > 100 µM | GI50 (UACC-257 melanoma) > 100 µM | GI50 (NCI-H23 lung) > 100 µM | GI50 (ACHN renal) > 100 µM | GI50 (HS 578T breast) > 100 µM | GI50 (UACC-62 melanoma) > 100 µM | GI50 (MDA-MB-435) > 100 µM | GI50 (SK-MEL-2 melanoma) > 100 µM | GI50 (M14 melanoma) > 100 µM | GI50 (BT-549 breast) > 100 µM | GI50 (HOP-62 NSCLC) > 100 µM | GI50 (COLO 205 colon) > 100 µM | GI50 (HT29 colon) > 100 µM | GI50 (A549 NSCLC) > 100 µM | GI50 (DU-145 prostate) > 100 µM | GI50 (A498 renal) > 100 µM | GI50 (NCI-H226 lung) > 100 µM | GI50 (TK-10 renal) > 100 µM | GI50 (EKVX NSCLC) > 100 µM | GI50 (T-47D breast) > 100 µM | GI50 (SNB-19 CNS) > 100 µM | GI50 (UO-31 renal) > 100 µM | GI50 (SF-539 CNS) > 100 µM | GI50 (HCC-2998 colon) > 100 µM | GI50 (MDA-MB-231 breast) > 100 µM | GI50 (OVCAR-8 ovarian) > 100 µM | GI50 (SK-MEL-5 melanoma) > 100 µM | GI50 (SW-620 colon) > 100 µM | GI50 (HCT-116 colon) > 100 µM | GI50 (PC-3 prostate) > 100 µM | GI50 (KM12 colon) > 100 µM | GI50 (SF-295 CNS) > 100 µM | GI50 (NCI-H460 lung) > 100 µM | GI50 (NCI-H522 lung) > 100 µM | GI50 (MCF7 breast) > 100 µM | GI50 (SK-OV-3 ovarian) > 100 µM | GI50 (OVCAR-4 ovarian) > 100 µM | GI50 (RXF 393 renal) > 100 µM | GI50 (NCI/ADR-RES ovarian) > 100 µM | GI50 (SF-268 CNS) > 100 µM | GI50 (HCT-15 colon) > 100 µM | GI50 (U251 CNS) > 100 µM | GI50 (OVCAR-5 ovarian) > 100 µM | GI50 (SK-MEL-28 melanoma) > 100 µM | GI50 (RPMI-8226 leukemia) > 100 µM | GI50 (OVCAR-3 ovarian) > 100 µM | GI50 (MALME-3M melanoma) > 100 µM | GI50 (HOP-92 NSCLC) > 100 µM | GI50 (786-0 renal) > 100 µM | GI50 (CAKI-1 renal) > 100 µM | GI50 (SN12C renal) > 100 µM | GI50 (LOX IMVI melanoma) > 100 µM | GI50 (IGROV1 ovarian) > 100 µM
